Measurements as given in patent US20230000835A1, “LYSINE-SPECIFIC HISTONE DEMETHYLASE INHIBITORS FOR THE TREATMENT OF MYELOPROLIFERATIVE NEOPLASMS” (Imago Biosciences, Inc., priority 2019, published 2023).
Where a name gives a salt, the structure may show the parent alone.

Legend:
[1] = system: patients with high-risk MF; assay: Phase 1/2a clinical study in myelofibrosis: MPN-SAF / MPN-10 symptom score; type: in vivo, human
From the text: In certain embodiments, said patient-reported survey is the Myeloproliferative Neoplasm Symptom Assessment Form (MPN-SAF). The MPN-SAF is a validated clinical assessment form for the most common symptoms of myeloproliferative neoplasms, in which patients self-reports their score, on a scale of 1-10, of various common symptoms, where 1 is the most favorable or the symptom is absent, and 10 is the least favorable or the symptom is the worst imaginable. See, e.g., Scherber R et al., The Myeloproliferative Neoplasm Symptom Assessment Form (MPN-SAF): International Prospective Validation and Reliability Trial in 402 patients,” Blood 118(2):401-08 (2014). Either the full or abbreviated forms may be administered to the patient. In the abbreviated version, a “total symptom score” (TSS) may be calculated from the ten most clinically relevant symptoms from the 17-item MPN-SAF: worst fatigue, concentration, early satiety, inactivity, night sweats, itching, bone pain, abdominal discomfort, weight loss, and fever. The MPN-SAF TSS thus has a possible range of 0 to 100. Quality of life scores are defined as “clinically deficient” when they rate as at least 4 of 10; “moderate” if symptoms are rated as ≥4 of 10 or ≤6 of 10; and “severe” if symptoms are rated as ≥7 of 10. For patients who complete at least six of these 10 items on the BFI and MPN-SAF, the MPN TSS is computed as the average of the observed items multiplied by 10 to achieve a 0-to-100 scale. See, e.g., Emanuel R M et al., “Myeloproliferative neoplasm (MPN) symptom assessment form total symptom score: prospective international assessment of an abbreviated symptom burden scoring system among patients with MPNs,” J Clin Oncol 30(33):4098-103 (2012). […]
The Phase 1/2A portion of the study assessed: the safety of the original starting dose, 0.25 mg/kg/d; an 85-day duration of treatment with a subsequent washout period of up to 28 days; and, pharmacokinetic and drug concentration measurements. […]

[2] = system: platelet count; assay: Clinical study: platelet count titration and peripheral blood counts; type: in vivo, human
From the text: Dosing was tailored using platelet count as a biomarker for the effect of bomedemstat activity on megakaryocyte function and activity. The megakaryocytes, the cell in bone marrow and elsewhere that make platelets, are central to the pathogenesis of myelofibrosis and essential thrombocythemia. In both conditions, somatic mutations in bone marrow stem cells result in mature megakaryocytes that produce excess platelets and biologically active proteins that alter the bone marrow niche as well as spill into the circulation resulting in symptoms characteristic of these conditions such as itching and fatigue.
Dosing of such a treatment can be made more precise by titrating the dose to lower the platelet count to a specific range.
In the Phase 1/2a portion of the study, patients started at the presumed sub-therapeutic dose of 0.25 mg/kg/d. Dose-adjustments were made weekly (the lifespan of a human platelet) with dose-titration, either upward or downward, contingent on platelet values at the time of evaluation. Upward titrations were made in increments of 0.125 or 0.0625 mg/kg/d as shown below. Downward titrations were made in decrements of 50% of the current dose. […] The titration target platelet count expected to be associated with most efficacious therapeutic effect was ≥50,000 to <100,000 μL (50-100×10^9/L). The Phase 1/2a titration and re-challenge rules based on weekly evaluation of platelet counts are noted below in Table 1.
A dose-response curve was subsequently generated that provided a titration algorithm to adjust dose to achieve a target platelet count of between 50,000-75,000 platelets per microliter (k/uL), devised with a view to minimizing the probability of severe thrombocytopenia. Excluding both the highest and lowest doses (total daily doses of 4 mg and 100 mg), the mean total daily dose of Compound 1 needed to achieve a platelet count in the target range was 78.3 mg (S.D. 13.8, range 53-90 mg) or the equivalent of approximately 0.7 to 1.2 mg/kg/d. Accordingly, to enable patients to reach more quickly the optimal dose while still maintaining an adequate safety margin, a new Compound 1 starting dose of 0.5 mg/kg QD was selected for all patients entering the Phase 2B portion of the study. The titration and re-challenge rules were also modified in association with this new target (Table 2).
Subsequent to amending the dosing algorithm, a re-analysis of dosing, response and safety was conducted based on the experience with the first sixteen patients. The mean dose needed to achieve and safely maintain a patient in the range of the target platelet count (the “therapeutic dose”) was 63.8 mg/d or 0.85 mg/kg/d (assuming an average weight of 75 kg). […] In a Phase 3 study, the starting dose is anticipated to be 40 mg with one or two additional dose adjustments made in the subsequent 4-6 weeks.

**Q.** With `CN1CCN(C(=O)[C@H](CCCN[C@@H]2C[C@H]2c2ccc(F)cc2)NC(=O)c2ccc(-n3ccnn3)cc2)CC1` [Compound 1, N-[(2S)-5-{[(1R, 2S)-2-(4-fluorophenyl)cyclopropyl]amino}-1-(4-methylpiperazin-1-yl)-1-oxopentan-2-yl]-4-(1H-1,2,3-triazol-1-yl)benzamide, bis-tosylate salt] as the compound, how does the “effect on myelofibrosis symptoms” value ([1]; evaluable patients N=14, 85-day cycle) read?
**A.** profound effect on myelofibrosis symptoms

**Q.** And the “number of patients with improved scores of fatigue” value ([1]; of the first 16 patients, within 14 days)?
**A.** 8

**Q.** What about the “patients with a decrease in symptom score (MPN-10)” value ([1]; week 24, Phase 1/2a) of the same compound?
**A.** 89%

**Q.** What about the “effect on platelet counts” value ([2]; on treatment) of the same compound?
**A.** reduced platelet counts in all patients

**Q.** What about the lymphocytes counts ([2]; on treatment) of the same compound?
**A.** unchanged

**Q.** And the monocyte counts ([2]; on treatment)?
**A.** generally modestly elevated

**Q.** And the peripheral granulocyte counts ([2]; on treatment)?
**A.** lower on treatment

**Q.** What about the “platelet counts after cessation of treatment” value ([2]; washout) of the same compound?
**A.** rebounded robustly
